Test results taken from patent US20240228555A9, “ANTIMICROBIAL PEPTIDOMIMETICS” (Basilea Pharmaceutica International AG, Allschwil, priority 2020, published 2024).
Where a SMILES comes first, the peptide text is derived from it.

Key:
[1] = test system: Escherichia coli ATCC 25922; conditions: ATCC 25922
Method in brief: (§1)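 Standardized inocula (0.5 McFarland in saline, then diluted in MHII broth to approximately 5×10^5 CFU/mL) were exposed to two-fold dilution series of each peptide in the presence of polysorbate 80 (0.002% final).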

[2] = test system: Escherichia coli MCR-1 Af 45; conditions: Mueller-Hinton broth II, no visible growth after 18-20 hours at 35° C.
Method in brief: as §1

[3] = test system: Klebsiella pneumoniae SSI3010; conditions: SSI3010
Method in brief: as §1

[4] = test system: human red blood cells (hRBC); assay type: cell-based; conditions: red cells of human, 1 h, 0.2 g/L
Method in brief: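 Percent lysis was derived from supernatant absorbance at 540 nm relative to full lysis by 2.5% Triton X-100 (PBS defines 0%). Compounds, 200 μg/mL, were exposed for 1 h at 37° C to a 20% (v/v) suspension of washed human red cells.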

Row | SMILES | Escherichia coli ATCC 25922 MIC [1] | Escherichia coli MCR-1 Af 45 MIC [2] | Klebsiella pneumoniae SSI3010 MIC [3] | Hemolysis at 0.2 g/L [4]
1 | CC[C@H](C)[C@H](NC(=O)[C@@H]1C[C@@H](N)CN1C(=O)[C@@H](N)C(C)C)C(=O)N[C@H](C(=O)N[C@@H](Cc1ccc(O)cc1)C(=O)N[C@@H]1C(=O)N[C@@H](CC(N)=O)C(=O)N[C@@H](CCCNC(=N)N)C(=O)N[C@@H](CCN)C(=O)N[C@@H]([C@@H](C)O)C(=O)N[C@H](CCN)C(=O)N[C@@H](CCCNC(N)=O)C(=O)N[C@H](C(=O)N[C@@H](CCN)C(=O)N[C@@H](CO)C(=O)N[C@@H](Cc2ccc(O)cc2)C(=O)O)CSSC1(C)C)[C@@H](C)O [Example 102, Val-Pro((4R)NH2)-Ile-Thr-Tyr-Pen-Asn-Arg-Dab-Thr-^DDab-Cit-Cys-Dab-Ser-Tyr] (HELM PEPTIDE1{V.[N[C@@H]1C[C@@H](C(=O)[*:2])N([*:1])C1].I.T.Y.[Pen].N.R.[Dab].T.[NCC[C@@H](N[*:1])C(=O)[*:2]].[Cit].C.[Dab].S.Y}$PEPTIDE1,PEPTIDE1,6:R3-13:R3$$$V2.0) | 0.25 µg/mL | 0.125 µg/mL | 0.25 µg/mL | <1%
2 | CC[C@H](C)[C@H](NC(=O)[C@@H](NC(=O)[C@@H]1C[C@@H](O)CN1C(=O)[C@@H](N)C(C)C)[C@@H](C)CC)C(=O)N[C@@H](Cc1ccc(O)cc1)C(=O)N[C@@H]1C(=O)N[C@@H](CC(N)=O)C(=O)N[C@@H](CCCNC(=N)N)C(=O)N[C@@H](CCN)C(=O)N[C@@H]([C@@H](C)O)C(=O)N[C@H](CCN)C(=O)N[C@@H](CCCCN)C(=O)N[C@H](C(=O)N[C@@H](CO)C(=O)N[C@@H](CCCNC(=N)N)C(=O)N[C@@H](Cc2ccc(O)cc2)C(=O)O)CSSC1(C)C [Example 107, Val-Hyp-Ile-Ile-Tyr-Pen-Asn-Arg-Dab-Thr-^DDab-Lys-Cys-Ser-Arg-Tyr] (HELM PEPTIDE1{V.[Hyp].I.I.Y.[Pen].N.R.[Dab].T.[NCC[C@@H](N[*:1])C(=O)[*:2]].K.C.S.R.Y}$PEPTIDE1,PEPTIDE1,6:R3-13:R3$$$V2.0) | 0.25 µg/mL | 0.25 µg/mL | 0.5 µg/mL | <1%
3 | CC[C@H](C)[C@H](NC(=O)[C@@H]1CCCCN1C(=O)[C@@H](N)C(C)C)C(=O)N[C@H](C(=O)N[C@@H](Cc1ccc(O)cc1)C(=O)N[C@@H]1C(=O)N[C@@H](CC(N)=O)C(=O)N[C@@H](CCCNC(=N)N)C(=O)N[C@@H](CCN)C(=O)N[C@@H]([C@@H](C)O)C(=O)N[C@H](CCN)C(=O)N[C@@H](CCCCN)C(=O)N[C@H](C(=O)N[C@@H](CCN)C(=O)N[C@@H](CCCNC(=N)N)C(=O)N[C@@H](Cc2ccc(O)cc2)C(=O)O)CSSC1(C)C)[C@@H](C)O [Example 132, Val-Pic-Ile-Thr-Tyr-Pen-Asn-Arg-Dab-Thr-^DDab-Lys-Cys-Dab-Arg-Tyr] (HELM PEPTIDE1{V.[O=C([C@@H]1CCCCN1[*:1])[*:2]].I.T.Y.[Pen].N.R.[Dab].T.[NCC[C@@H](N[*:1])C(=O)[*:2]].K.C.[Dab].R.Y}$PEPTIDE1,PEPTIDE1,6:R3-13:R3$$$V2.0) | 0.125 µg/mL | 0.125 µg/mL | 0.25 µg/mL | <1%
4 | CC[C@H](C)[C@H](NC(=O)[C@@H]1C[C@@H](O)CN1C(=O)[C@@H](N)C(C)C)C(=O)N[C@H](C(=O)N[C@@H](Cc1ccc(O)cc1)C(=O)N[C@@H]1C(=O)N[C@@H](CC(N)=O)C(=O)N[C@@H](CCCNC(=N)N)C(=O)N[C@@H](CCN)C(=O)N[C@@H]([C@@H](C)O)C(=O)N[C@H](CCNC(C)C)C(=O)N[C@@H](CCCCN)C(=O)N[C@H](C(=O)N[C@@H](CCN)C(=O)N[C@@H](CCCNC(=N)N)C(=O)N[C@@H](Cc2ccc(O)cc2)C(=O)O)CSSC1(C)C)[C@@H](C)O [Example 138, Hyp-Ile-Thr-Tyr-Pen-Asn-Arg-Dab-Thr-^DDab(iPr)-Lys-Cys-Dab-Arg-Tyr] (HELM PEPTIDE1{V.[Hyp].I.T.Y.[Pen].N.R.[Dab].T.[CC(C)NCC[C@@H](N[*:1])C(=O)[*:2]].K.C.[Dab].R.Y}$PEPTIDE1,PEPTIDE1,6:R3-13:R3$$$V2.0) | 0.125 µg/mL | 0.125 µg/mL | 0.5 µg/mL | <1%
5 | CC[C@H](C)[C@H](NC(=O)[C@@H](NC(=O)[C@@H]1C[C@@H](O)CN1C(=O)[C@@H](N)C(C)C)[C@@H](C)CC)C(=O)N[C@@H](Cc1ccc(O)cc1)C(=O)N[C@@H]1C(=O)N[C@@H](CC(N)=O)C(=O)N[C@@H](CCCNC(=N)N)C(=O)N[C@@H](CCN)C(=O)N[C@@H]([C@@H](C)O)C(=O)N[C@H](CCN)C(=O)N[C@@H](CCCCN)C(=O)N[C@H](C(=O)N[C@@H](CCN)C(=O)N[C@H](C(=O)N[C@@H](Cc2ccc(O)cc2)C(=O)O)[C@@H](C)O)CSSC1(C)C [Example 111, Val-Hyp-Ile-Ile-Tyr-Pen-Asn-Arg-Dab-Thr-^DDab-Lys-Cys-Dab-Thr-Tyr] (HELM PEPTIDE1{V.[Hyp].I.I.Y.[Pen].N.R.[Dab].T.[NCC[C@@H](N[*:1])C(=O)[*:2]].K.C.[Dab].T.Y}$PEPTIDE1,PEPTIDE1,6:R3-13:R3$$$V2.0) | 0.25 µg/mL | 0.125 µg/mL | 0.5 µg/mL | <1%
6 | CC[C@H](C)[C@H](NC(=O)[C@@H]1C=CCN1C(=O)[C@@H](N)C(C)C)C(=O)N[C@H](C(=O)N[C@@H](Cc1ccc(O)cc1)C(=O)N[C@@H]1C(=O)N[C@@H](CC(N)=O)C(=O)N[C@@H](CCCNC(=N)N)C(=O)N[C@@H](CCN)C(=O)N[C@@H]([C@@H](C)O)C(=O)N[C@H](CCN)C(=O)N[C@@H](CCCCN)C(=O)N[C@H](C(=O)N[C@@H](CCN)C(=O)N[C@@H](CCCNC(=N)N)C(=O)N[C@@H](Cc2ccc(O)cc2)C(=O)O)CSSC1(C)C)[C@@H](C)O [Example 128, Val-Pro(3,4dehydro)-Ile-Thr-Tyr-Pen-Asn-Arg-Dab-Thr-^DDab-Lys-Cys-Dab-Arg-Tyr] (HELM PEPTIDE1{V.[O=C([C@@H]1C=CCN1[*:1])[*:2]].I.T.Y.[Pen].N.R.[Dab].T.[NCC[C@@H](N[*:1])C(=O)[*:2]].K.C.[Dab].R.Y}$PEPTIDE1,PEPTIDE1,6:R3-13:R3$$$V2.0) | 0.125 µg/mL | 0.125 µg/mL | 0.25 µg/mL | <1%
7 | CC[C@H](C)[C@H](NC(=O)[C@@H](NC(=O)[C@@H]1C[C@@H](O)CN1C(=O)[C@@H](N)C(C)C)[C@@H](C)CC)C(=O)N[C@@H](Cc1ccc(O)cc1)C(=O)N[C@@H]1C(=O)N[C@@H](CC(N)=O)C(=O)N[C@@H](CCCNC(=N)N)C(=O)N[C@@H](CCN)C(=O)N[C@@H]([C@@H](C)O)C(=O)N[C@H](CCN)C(=O)N[C@@H](CCCCN)C(=O)N[C@H](C(=O)N[C@@H](CCN)C(=O)N[C@@H](CCCNC(N)=O)C(=O)N[C@@H](Cc2ccc(O)cc2)C(=O)O)CSSC1(C)C [Example 73, Val-Hyp-Ile-Ile-Tyr-Pen-Asn-Arg-Dab-Thr-^DDab-Lys-Cys-Dab-Cit-Tyr] (HELM PEPTIDE1{V.[Hyp].I.I.Y.[Pen].N.R.[Dab].T.[NCC[C@@H](N[*:1])C(=O)[*:2]].K.C.[Dab].[Cit].Y}$PEPTIDE1,PEPTIDE1,6:R3-13:R3$$$V2.0) | 0.5 µg/mL | 0.25 µg/mL | 0.5 µg/mL | <1%
